From patent US11098056B2, “UDP glycosyltransferase inhibitors and methods of use” (GENZYME CORPORATION, priority 2018, dated 2021)
Where a name gives a salt, the structure may show the parent alone.

How the values were obtained:
UGT8 [1] = target: T1, UGT8 (Mus musculus, UniProt Q64676); assay: Acute in vivo target engagement in mouse kidney: inhibition of de novo GalCer and SFT synthesis (13C-Gal incorporation); details: 5 hr
T1 construct: Groups of 5 male C57Bl/6 mice, 6-9 wks of age (Charles River Laboratories); tissue Charles River Laboratories; host or cells: mouse kidney (adult C57Bl/6) and mid-/hind brain (neonatal P14-P21 mice)
T1 sequence (Q64676 21-541): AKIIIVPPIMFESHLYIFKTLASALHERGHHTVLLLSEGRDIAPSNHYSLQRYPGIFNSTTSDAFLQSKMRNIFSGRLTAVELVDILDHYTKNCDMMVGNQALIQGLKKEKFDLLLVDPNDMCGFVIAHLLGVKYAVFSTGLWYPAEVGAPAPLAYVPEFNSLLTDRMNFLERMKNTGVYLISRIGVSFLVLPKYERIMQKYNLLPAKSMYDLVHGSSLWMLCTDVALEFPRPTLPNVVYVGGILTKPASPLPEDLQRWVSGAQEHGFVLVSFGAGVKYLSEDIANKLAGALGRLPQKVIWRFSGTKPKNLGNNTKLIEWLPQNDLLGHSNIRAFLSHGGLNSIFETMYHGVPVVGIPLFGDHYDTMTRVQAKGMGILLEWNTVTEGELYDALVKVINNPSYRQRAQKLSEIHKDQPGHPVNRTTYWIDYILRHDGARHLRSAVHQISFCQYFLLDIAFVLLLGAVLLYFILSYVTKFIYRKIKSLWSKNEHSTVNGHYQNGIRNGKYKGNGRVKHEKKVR
Method: In vivo target engagement was initially assessed in an adult mouse kidney model assessing de novo synthesis inhibition. This model was selected because the high rate of GalCer and SFT synthesis and turnover in kidney facilitated development of an acute one-day model assessing the effect of a single administration of compound at different doses. Inhibition of de novo synthesis was determined by measuring the amount of 13C6 galactose (13C-Gal; CIL, cat #CLM-1570-pk) incorporated into GalCer and SFT.
Groups of 5 male C57Bl/6 mice, 6-9 wks of age (Charles River Laboratories) were maintained in an ALAAC-accredited vivarium with food and water ad libitum and were allowed to acclimate one week before initiating studies. Three to 5 dose groups received test article formulated in a clinically-acceptable formulation, administered by oral gavage; the control group received vehicle alone. One hr after administration of test article, animals received an intraperitoneal (i.p.) injection of 13C-Gal (3 g/kg); 5 hr after administration of test article, animals were euthanized and a kidney was removed and divided into two longitudinal samples that were snap-frozen and stored at −80° C. until processing for test article tissue exposure and lipid analysis (GalCer and SFT). Typically, brain and plasma samples were also collected for test article exposure.
(§1) Mass Spectrometer Analysis of SFT
(§2) Quantitative analysis of sphingolipids (SLs) was performed using liquid chromatography with tandem mass spectrometry analysis (LC-MS/MS). Briefly, to extract glucosylceramide (GlcCer), galactosylceramide (GalCer), and sulfatide (ST), an aliquot of 10 μL of mouse tissue homogenate (100 mg/ml in water) was mixed with 1 mL of extraction solution (0.2% Formic Acid; 5 mM Ammonium formate in (50:50) Methanol:Acetonitrile (v/v) with internal standards (IS)). C17-ST and D35 labeled C18-GalCer were used for IS. The mixtures were vortexed and centrifuged. The resulting supernatants were transferred to HPLC vials for LC-MS/MS analysis. GlcCer and GalCer were separated using a Waters Acquity UPLC and Atlantis HILIC Silica column (2.1 mm×150 mm, […], Waters Corp., Milford, Mass.) and analyzed by an API 5000 triple quadrupole mass spectrometer in MRM mode (Applied Biosystems, Foster City, Calif.). ST were analyzed using a Waters Acquity UPLC and BEH C18 column (2.1 mm×50 mm, […], Waters Corp., Milford, Mass.) and analyzed by an API 6500 triple quadrupole mass spectrometer in MRM mode (Applied Biosystems, Foster City, Calif.).

UGT8 [2] = target: T2, UGT8 (Homo sapiens, UniProt Q16880); assay: In vitro sulfatide (SFT) synthesis inhibition in OE19 cells, LC-MS/MS readout; type: cell-based; details: 72 hr, sulfatide by LC-MS/MS, read-out: Potency range (IC50, In-vitro SFT)
T2 construct: host or cells: OE19 cells
T2 sequence (Q16880 21-541): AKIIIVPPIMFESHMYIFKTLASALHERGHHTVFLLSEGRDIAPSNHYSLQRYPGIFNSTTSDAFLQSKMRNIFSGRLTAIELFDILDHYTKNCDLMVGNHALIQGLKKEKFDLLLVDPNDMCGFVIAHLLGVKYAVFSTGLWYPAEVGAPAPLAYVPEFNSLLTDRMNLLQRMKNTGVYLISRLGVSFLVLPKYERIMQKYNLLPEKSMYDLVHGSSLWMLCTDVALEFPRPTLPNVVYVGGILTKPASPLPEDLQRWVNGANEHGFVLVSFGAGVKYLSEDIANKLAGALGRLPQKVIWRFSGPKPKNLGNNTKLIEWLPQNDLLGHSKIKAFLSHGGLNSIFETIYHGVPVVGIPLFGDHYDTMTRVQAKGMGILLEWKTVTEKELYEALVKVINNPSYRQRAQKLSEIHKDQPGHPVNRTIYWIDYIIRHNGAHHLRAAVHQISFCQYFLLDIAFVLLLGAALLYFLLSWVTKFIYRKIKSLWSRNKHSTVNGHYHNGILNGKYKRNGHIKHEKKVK
In short: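 OE19 cells, 2,500/well, exposed to compound dose-downs in triplicate for 72 hr at 37° C (screening at 10 μM final). Sulfatide quantified by LC-MS/MS (C8 UPLC, isocratic, negative-ion MRM) with C17 SFT internal standard; IC50 from concentration-response curves.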

UGT8 [3] = target: T1, UGT8; assay: Acute in vivo target engagement in neonatal mouse brain: inhibition of de novo GalCer and SFT synthesis (13C-Gal incorporation); details: neonatal mouse (P14-P21) brain, 5 hr
Excerpt: SFT biosynthesis and turnover in the myelin of adult mice is very low, necessitating development of a short-term acute model of de novo synthesis inhibition. To do this, we took advantage of the fact that unlike primates in which most developmental myelination occurs in utero, in rodents, peak myelination occurs between postnatal day 14 (P14) and P22.
Groups of 5 neonatal mice age-matched between P14 and P21 received test article formulated in a clinically-acceptable formulation, administered by oral gavage; the control group received vehicle alone. One hr after administration of test article, animals received an i.p. injection of 13C-Gal (3 g/kg); 5 hr after administration of test article, animals were euthanized, brains were removed and dissected for recovery of mid- and hind brain which was snap-frozen and stored at −80° C. until analysis. Plasma samples were also collected for test article exposure analysis.
as §1, §2

Structure (SMILES) | kidney GalCer % inh (UGT8 [1]; single oral dose 10 mg/kg) | kidney GalCer % inh (UGT8 [1]; single oral dose 50 mg/kg) | IC50 (UGT8 [2]) | brain GalCer % inh (UGT8 [3]; single oral dose 10 mg/kg) | brain Sulfatide % inh (UGT8 [3]; single oral dose 10 mg/kg) | brain GalCer % inh (UGT8 [3]; single oral dose 30 mg/kg) | brain Sulfatide % inh (UGT8 [3]; single oral dose 30 mg/kg) | kidney GalCer % inh (UGT8 [1]; single oral dose 1 mg/kg) | kidney Sulfatide % inh (UGT8 [1]; single oral dose 1 mg/kg) | kidney GalCer % inh (UGT8 [1]; single oral dose 3 mg/kg) | kidney Sulfatide % inh (UGT8 [1]; single oral dose 3 mg/kg) | kidney Sulfatide % inh (UGT8 [1]; single oral dose 10 mg/kg) | further results
CNC(=O)c1csc2c(C(F)(F)F)cc(N3CCC(OC(=O)N[C@@H](C)C4CC4)CC3)nc12 [Example 109, 1-(3-(Methylcarbamoyl)-7-(trifluoromethyl)thieno[3,2-b]pyridin-5-yl)piperidin-4-yl (S)-(1-cyclopropylethyl)carbamate] | B (40% < B < 80%) | A (A > 80%) | < 100 nM | B, B, B (40% < B < 80%) | A, A, A (A > 80%) | B, B, B (40% < B < 80%) | A, A, A (A > 80%) | – | – | – | – | – | kidney GalCer % inh (UGT8 [1]; single oral dose 5 mg/kg): C (C < 40%); brain GalCer % inh (UGT8 [3]; single oral dose 100 mg/kg): B, B, B (40% < B < 80%); brain Sulfatide % inh (UGT8 [3]; single oral dose 100 mg/kg): A, A, A (A > 80%)
CNC(=O)c1csc2c(C(F)(F)F)cc(N3CCC(OC(=O)NCC4CC4)CC3)nc12 [Example 475, 1-(3-(Methylcarbamoyl)-7-(trifluoromethyl)thieno[3,2-b]pyridin-5-yl)piperidin-4-yl (cyclopropylmethyl)carbamate trifluoroacetate] | B (40% < B < 80%) | B (40% < B < 80%) | – | – | – | – | – | – | – | C (C < 40%) | – | – | –
CNC(=O)c1csc2c(C(F)(F)F)cc(N3CC[C@H](OC(=O)NC(C)C)[C@@H](F)C3)nc12 [Example 496, (3S,4S)-3-Fluoro-1-(3-(methylcarbamoyl)-7-(trifluoromethyl)thieno[3,2-b]pyridin-5-yl)piperidin-4-yl isopropylcarbamate] | A, A, A (A > 80%) | – | < 100 nM | – | – | – | – | – | – | – | – | A, A, A (A > 80%) | kidney GalCer % inh (UGT8 [1]; single oral dose 30 mg/kg): A, A, A (A > 80%); kidney Sulfatide % inh (UGT8 [1]; single oral dose 30 mg/kg): A, A, A (A > 80%); kidney GalCer % inh (UGT8 [1]; single oral dose 100 mg/kg): A, A, A (A > 80%); kidney Sulfatide % inh (UGT8 [1]; single oral dose 100 mg/kg): A, A, A (A > 80%)
CNC(=O)c1csc2c(C(F)(F)F)cc(OC3CC4COCC(C3)N4C(=O)OCCOC(F)(F)F)nc12 (racemic) [Example 629, 2-(Trifluoromethoxy)ethyl (+/−)-endo7-((3-(methylcarbamoyl)-7-(trifluoromethyl)thieno[3,2-b]pyridin-5-yl)oxy)-3-oxa-9-azabicyclo[3.3.]nonane-9-carboxylate] | – | – | < 100 nM | – | – | – | – | – | – | – | – | – | –

Second part, led by results:

kidney GalCer % inh (UGT8 [1]; single oral dose 10 mg/kg) | kidney GalCer % inh (UGT8 [1]; single oral dose 50 mg/kg) | IC50 (UGT8 [2]) | brain GalCer % inh (UGT8 [3]; single oral dose 10 mg/kg) | brain Sulfatide % inh (UGT8 [3]; single oral dose 10 mg/kg) | brain GalCer % inh (UGT8 [3]; single oral dose 30 mg/kg) | brain Sulfatide % inh (UGT8 [3]; single oral dose 30 mg/kg) | kidney GalCer % inh (UGT8 [1]; single oral dose 1 mg/kg) | kidney Sulfatide % inh (UGT8 [1]; single oral dose 1 mg/kg) | kidney GalCer % inh (UGT8 [1]; single oral dose 3 mg/kg) | kidney Sulfatide % inh (UGT8 [1]; single oral dose 3 mg/kg) | kidney Sulfatide % inh (UGT8 [1]; single oral dose 10 mg/kg) | Structure (SMILES) | further results
B (40% < B < 80%) | – | < 100 nM | A (A > 80%) | A (A > 80%) | A (A > 80%) | A (A > 80%) | C (C < 40%) | C (C < 40%) | B (40% < B < 80%) | B (40% < B < 80%) | B (40% < B < 80%) | CNC(=O)c1csc2c(C(F)(F)F)cc(N3CCC(OC(=O)NC(C)C)CC3)nc12 [Example 76, 1-(3-(Methylcarbamoyl)-7-(trifluoromethyl)thieno[3,2-b]pyridin-5-yl)piperidin-4-yl isopropylcarbamate] | brain GalCer % inh (UGT8 [3]; single oral dose 3 mg/kg): B (40% < B < 80%); brain Sulfatide % inh (UGT8 [3]; single oral dose 3 mg/kg): B (40% < B < 80%)
B (40% < B < 80%) | – | < 100 nM | – | – | – | – | C (C < 40%) | C (C < 40%) | C (C < 40%) | C (C < 40%) | A (A > 80%) | CNC(=O)c1csc2c(C(F)(F)F)cc(N3CCC(OC(=O)N[C@@H](C)CF)CC3)nc12 [Example 693, [1-[3-(Methylcarbamoyl)-7-(trifluoromethyl)thieno[3,2-b]pyridin-5-yl]-4-piperidyl] N-[(1S)-2-fluoro-1-methyl-ethyl]carbamate] | –
